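Protocol summary: plate cells (96-well), add compound at 5 concentrations, incubate 48 h, interpolate endpoints linearly. GI50 is the concentration that inhibits growth by half.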 The source made the active and inactive calls. Rule as the data show it: active = GI50 up to about 1.1 µM and inactive = higher. Bounds are passed on as bounds.

What all share (test): growth of human tumour cells (NCI), 48 h
Test [1] relates to A498.
The test system of test [2] is ACHN.
Test [3] has as its system BT-549.
Test [4] has as its system CAKI-1.
Test [5] concerns HCT-15.
The test system of test [6] is Hs-578T.
Test [7] relates to K562.
Test [8] has as its system M14.
Test [9] relates to MDA-MB-231.
The subject of test [10] is NCI-H522.
The test system of test [11] is OVCAR-8.
Test [12] deals with PC-3.
The subject of test [13] is SF-295.
The subject of test [14] is SNB-19.
Test [15] relates to SNB-75.
The subject of test [16] is SR.
Test [17] relates to SW-620.
Test [18] relates to UACC-62.
The test system of test [19] is HCC 2998.

As for `O=C1CCSC(=S)N1c1ccc(Br)c(Cl)c1`, the GI50 was 22.2 µM (inactive) in [1]; 21.6 µM (inactive) in test [2]; 21.1 µM (inactive) in test [3]; 29.6 µM (inactive) in [4]; 20.4 µM in test [5]; 39 µM (inactive) in test [6]. The GI50 in test [7] was 32.9 µM (inactive); in [8] it was 58.1 µM (inactive); in test [9] it was 29 µM (inactive); in [10], 21 µM (inactive); in test [11] it was 30.5 µM (inactive); in test [12], 34.5 µM (inactive). The GI50 was 32.7 µM (inactive) in [13]; 23.7 µM (inactive) in [14]; 25.5 µM (inactive) in test [15]; 32 µM (inactive) in test [16]; 28.1 µM (inactive) in [17]; 23.6 µM (inactive) in test [18].

As to `COC1(CC[C@H](C)COC2OC(CO)C(O)C(O)C2O)O[C@H]2C[C@H]3[C@@H]4CC=C5C[C@@H](OC6OC(CO)C(O)C(OC7OC(CO)C(O)C(O)C7O)C6OC6OC(C)C(O)C(O)C6O)CC[C@]5(C)[C@H]4CC[C@]3(C)[C@H]2[C@@H]1C` (stereo partly specified), the GI50 in test [1] is 17.8 µM (inactive); in [2] it was 13.3 µM (inactive); in test [3], 7.6 µM (inactive); in [4] it was 5.45 µM (inactive); in test [19], 4.86 µM (inactive); in [5], 2.96 µM. For the same compound, the GI50 in [6] was 11 µM (inactive); in test [7], 4.88 µM (inactive); in test [8], 2.84 µM (inactive); in test [9], 3.7 µM (inactive); in test [10], 2.94 µM (inactive); in test [11] it was 3.03 µM (inactive). In addition, the GI50 is 4.3 µM (inactive) in test [12]; 3.3 µM (inactive) in test [13]; 7.31 µM (inactive) in test [14]; 2.55 µM (inactive) in test [15]; > 100 µM (inactive) in [16]; 2.81 µM (inactive) in test [17]. In [18], the GI50 was 3.7 µM (inactive).

On to `Fc1ccc(OCc2ccc3nc(-c4ccccc4)c(Cl)nc3c2)cc1`, for which the GI50 is 25.8 µM (inactive) in test [1]; 25.4 µM (inactive) in test [2]; 31.1 µM (inactive) in test [3]; 22.1 µM (inactive) in test [4]; 40.5 µM (inactive) in test [19]; above 100 µM in test [5]. The GI50 was 24.7 µM (inactive) in [6]; 67.8 µM (inactive) in [8]; 20 µM (inactive) in [9]; 6.19 µM (inactive) in test [10]; 36.4 µM (inactive) in [11]; 37.2 µM (inactive) in [12]. Also, the GI50 in [13] was 21.4 µM (inactive); in [14] it was > 10 µM (inactive); in test [15], 16.7 µM (inactive); in [16], 16.1 µM (inactive); in [17], 77.3 µM (inactive); in test [18] it was 28.8 µM (inactive).

For the compound `CC(C)C/C=C/C1=NN(c2cccc(S(=O)(=O)O)c2)C2(C1)SCC(=O)N2c1nc2ccccc2s1` (stereo unspecified), the GI50 in test [1] is 27.7 µM (inactive); in test [2], 72.4 µM (inactive); in test [3] it was 83.2 µM (inactive); in test [4], 66.8 µM (inactive); in test [19] it was > 100 µM (inactive); in test [5] it was 91.6 µM. The GI50 in test [6] was 56.8 µM (inactive); in test [7], 51.4 µM (inactive); in test [8] it was > 100 µM (inactive); in test [9], 38.9 µM (inactive); in [10], 19.8 µM (inactive); in test [11], 66.2 µM (inactive). Also, the GI50 in test [12] was 40 µM (inactive); in test [14] it was 50 µM (inactive); in test [15], 97.5 µM (inactive); in test [16], 25.2 µM (inactive); in test [17] it was 96.6 µM (inactive); in [18], 48.4 µM (inactive).

With `c1cc2c3c(c1)[C@@H]1O[C@@H]1c1cccc(c1-3)[C@@H]1O[C@H]21`, the GI50 is 63.8 µM (inactive) in test [1]; 18.7 µM (inactive) in test [2]; 24 µM (inactive) in [3]; 14.8 µM (inactive) in test [4]; 17.5 µM in test [5]; 17.6 µM (inactive) in [6]. The GI50 in test [7] is 17.7 µM (inactive); in test [8], 15 µM (inactive); in [9], 19.1 µM (inactive); in test [10], 14.8 µM (inactive); in [11], 17.9 µM (inactive); in test [12], 22.9 µM (inactive). Further, the GI50 was 23.6 µM (inactive) in [13]; 53.3 µM (inactive) in test [14]; 20.9 µM (inactive) in [15]; 49.5 µM (inactive) in test [16]; 16.5 µM (inactive) in [18].

For `COc1ccc(C(=O)Nc2ccc(O)c(=O)cc2)cc1`, the GI50 in test [1] was < 0.01 µM (active); in [2], 23.7 µM (inactive); in test [3] it was 38.5 µM (inactive); in test [4], 36.9 µM (inactive); in test [19], 39.9 µM (inactive); in [5] it was 26.9 µM. Besides, the GI50 in test [6] is 29.2 µM (inactive); in test [7], 32.4 µM (inactive); in test [8] it was 78 µM (inactive); in test [9] it was 42.3 µM (inactive); in test [10], 25.8 µM (inactive); in [11], 30.6 µM (inactive). Also, the GI50 in test [12] was 40 µM (inactive); in test [13], 37.8 µM (inactive); in test [14], 36.1 µM (inactive); in test [16], 17.5 µM (inactive); in [17], 30.7 µM (inactive); in test [18], 32.5 µM (inactive).

Consider `CC(C)=CCOc1cc(NC(=S)c2ccoc2C)ccc1Cl` [UC 781], for which the GI50 in test [1] was > 100 µM (inactive); in test [2], > 100 µM (inactive); in test [3], > 100 µM (inactive); in [4], > 100 µM (inactive); in [19], > 100 µM (inactive); in [5], above 100 µM. In addition, the GI50 in [6] was 48.6 µM (inactive); in test [9], 35.5 µM (inactive); in test [10] it was > 100 µM (inactive); in test [11] it was 34.8 µM (inactive); in [12], > 100 µM (inactive); in test [13], > 100 µM (inactive). In addition, the GI50 was 81.1 µM (inactive) in [14]; 16.3 µM (inactive) in test [15]; > 100 µM (inactive) in [16]; > 100 µM (inactive) in test [17]; > 100 µM (inactive) in [18].

Take `CC(C)(C)[C@@H]1NC(=O)CN1C(=O)OCc1ccccc1`: the GI50 in test [1] is > 100 µM (inactive); in test [2], > 100 µM (inactive); in [3], > 100 µM (inactive); in test [19], > 100 µM (inactive); in test [5], above 100 µM; in [6], 0.661 µM (active). Also, the GI50 in [7], in test [8], in [9], in [10], in [11] and in [12] was > 100 µM (inactive) throughout. Further, the GI50 in test [13], in test [14], in test [15], in test [16], in test [17] and in [18] was > 100 µM (inactive) throughout.

As for `CC1=NN(c2nc(N)nc(/C(C#N)=C/c3ccccc3O)n2)C(C)(C)C1`, the GI50 is 24.7 µM (inactive) in test [1]; 18.5 µM (inactive) in [2]; 36.2 µM (inactive) in test [3]; 19.6 µM (inactive) in test [4]; 19.5 µM (inactive) in test [19]; 19.4 µM in test [5]. Also, the GI50 in [6] was 16.3 µM (inactive); in [7], 51.5 µM (inactive); in test [8], 20.8 µM (inactive); in test [9], 19.9 µM (inactive); in test [10], 19.8 µM (inactive); in test [11], 26.5 µM (inactive). Moreover, the GI50 in test [12] is 16 µM (inactive); in [13], 15.6 µM (inactive); in test [14], 25.5 µM (inactive); in test [16], 35.9 µM (inactive); in [18], 17.1 µM (inactive).

As to `CC(C)(C)OC(=O)NCC(CNC(=O)OC(C)(C)C)C(N)=O`, the GI50 was > 100 µM (inactive) in test [1]; > 100 µM (inactive) in [2]; > 100 µM (inactive) in test [3]; > 100 µM (inactive) in [4]; > 100 µM (inactive) in [19]; above 100 µM in test [5]. Further, the GI50 in test [6], in test [7], in test [8], in test [9], in [10] and in [11] was > 100 µM (inactive) throughout. In addition, the GI50 in [12], in test [13], in test [14], in test [16], in [17] and in test [18] was > 100 µM (inactive) throughout.

Turning to `S=C(NCCc1ccccn1)c1nc[nH]c1C(=S)NCCc1ccccn1`, the GI50 is > 100 µM (inactive) in [1]; 36.3 µM (inactive) in test [2]; 42.3 µM (inactive) in test [3]; 57.1 µM (inactive) in [4]; 76.9 µM (inactive) in [19]; 34.6 µM in test [5]. The GI50 in test [6] is 20.7 µM (inactive); in test [7], 40.8 µM (inactive); in test [8], 31.9 µM (inactive); in test [9], > 100 µM (inactive); in [11], 28.4 µM (inactive); in [12], 39.2 µM (inactive). Further, the GI50 in [13] was 25.1 µM (inactive); in [14] it was 60.3 µM (inactive); in test [15], 27.5 µM (inactive); in test [16], 34 µM (inactive); in [17] it was 32.5 µM (inactive); in test [18], 22.7 µM (inactive).

The values above are taken from ChEMBL document CHEMBL1201862, “PubChem BioAssay data set” (2004).
